Reference: patent publication US20160137639A1, “TRIAZOLE-ISOXAZOLE COMPOUND AND MEDICAL USE THEREOF” (JAPAN TOBACCO INC., priority 2012, published 2016)
Like-named read-outs stand apart in the source and are kept apart here.

Experiments:
human RORγ = target: T1, human RORγ (Homo sapiens, UniProt P51449); assay: Luciferase reporter gene assay of inhibitory effect against RORγ transcriptional activity (GAL4-hRORγ plasmid in CHO cells); assay type: cell-based
T1 construct: human, NM_005060.3 and from Ser253 to Lys518; expressed in transfected cells; host or cells: CHO cells (transient co-transfection with pG5-Luc reporter)
T1 sequence (P51449 253-518): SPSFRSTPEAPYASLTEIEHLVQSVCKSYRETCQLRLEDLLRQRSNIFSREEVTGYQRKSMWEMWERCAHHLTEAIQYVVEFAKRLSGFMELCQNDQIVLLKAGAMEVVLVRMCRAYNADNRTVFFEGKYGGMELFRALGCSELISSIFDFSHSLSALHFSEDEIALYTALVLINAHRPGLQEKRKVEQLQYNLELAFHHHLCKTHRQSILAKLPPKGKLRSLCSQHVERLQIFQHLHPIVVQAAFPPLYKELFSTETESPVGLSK

mouse RORγ = target: T2, mouse RORγ (Mus musculus, UniProt P51450); assay: Luciferase reporter gene assay of inhibitory effect against RORγ transcriptional activity (GAL4-mRORγ plasmid in CHO cells); assay type: cell-based
T2 construct: mouse, NM_011281.2 and from Ile251 to Lys516; expressed in transfected cells; host or cells: CHO cells (transient co-transfection with pG5-Luc reporter)
T2 sequence (P51450 251-516): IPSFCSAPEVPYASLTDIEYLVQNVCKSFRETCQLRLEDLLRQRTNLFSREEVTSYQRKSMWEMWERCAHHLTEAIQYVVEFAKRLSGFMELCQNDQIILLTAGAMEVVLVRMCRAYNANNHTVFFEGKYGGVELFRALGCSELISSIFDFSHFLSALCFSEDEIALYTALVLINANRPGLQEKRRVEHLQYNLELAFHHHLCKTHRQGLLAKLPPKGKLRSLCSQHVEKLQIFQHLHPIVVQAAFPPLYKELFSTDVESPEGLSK
Procedure, shortened: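 CHO cells transiently co-transfected with GAL4-mouse RORγ LBD (Ile251–Lys516) and GAL4-dependent luciferase reporter; eight compound concentrations, 0.1% DMSO, 2 days at 37 °C. Luminescence as %-of-vehicle control; EC50 by curve fit, cytotoxic concentrations excluded.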

Structure (SMILES): Cc1cc(Cl)ccc1NC(=O)C[C@H](OC(C)C)c1nnc(-c2cc(CC(C)C)on2)n1C1CC1 [Example F-614]
- EC50 (human RORγ; read-out: LUC EC50 hRORg): < 3 µM
- EC50 (mouse RORγ; read-out: LUC EC50 mRORg): < 3 µM

Structure (SMILES): CC(=O)N1CC[C@H](c2nnc(CCCC(C)(C)C)n2C2CC2)[C@@H](C(=O)Nc2ccc(C)cc2C)C1 (racemic) [Example F-435]
- EC50 (human RORγ; read-out: LUC EC50 (μM) hRORg): < 3 µM
- EC50 (mouse RORγ; read-out: LUC EC50 (μM) mRORg): < 3 µM

Structure (SMILES): Cc1ccc(NC(=O)C[C@H](CCC(=O)O)c2noc(-c3cc(C(F)(F)C4CC4)on3)c2C2CC2)c(Cl)c1 [Example E-73]
- EC50 (human RORγ; read-out: LUC EC50 (μM) hRORg): < 3 µM
- EC50 (mouse RORγ; read-out: LUC EC50 (μM) mRORg): < 3 µM

Structure (SMILES): Cc1ccc(NC(=O)C[C@H](CCO)c2nnc(-c3cc(CCC(C)C)on3)n2C2CC2)c(C)c1 [Example F-615]
- EC50 (human RORγ; read-out: LUC EC50 hRORg): < 3 µM
- EC50 (mouse RORγ; read-out: LUC EC50 mRORg): < 3 µM

Structure (SMILES): Cc1ccc(NC(=O)C[C@H](OC(C)C)c2nnc([C@H]3C[C@@H](CC(C)C)C3)n2C2CC2)c(C)c1 [Example F-558]
- EC50 (human RORγ; read-out: LUC EC50 hRORg): < 3 µM
- EC50 (mouse RORγ; read-out: LUC EC50 mRORg): < 3 µM

Structure (SMILES): COc1cc(NC(=O)C[C@H](CCO)c2nnc([C@H]3C[C@@H](CC(C)C)C3)n2C2CC2)ccc1C [Example F-526]
- EC50 (human RORγ; read-out: LUC EC50 hRORg): < 3 µM
- EC50 (mouse RORγ; read-out: LUC EC50 mRORg): < 3 µM

Structure (SMILES): CC1(Cc2cc(-c3onc([C@@H](CCC(=O)O)CC(=O)Nc4ccc(F)cc4Cl)c3C3CC3)no2)CC1 [Example E-63]
- EC50 (human RORγ; read-out: LUC EC50 (μM) hRORg): < 3 µM
- EC50 (mouse RORγ; read-out: LUC EC50 (μM) mRORg): < 3 µM

Structure (SMILES): Cc1c(Cl)cccc1NC(=O)CCc1nnc(C2CN(CC(C)C)C2)n1C1CC1 [Example F-260]
- EC50 (human RORγ; read-out: LUC EC50 (μM) hRORg): > 3 µM
- EC50 (mouse RORγ; read-out: LUC EC50 (μM) mRORg): > 3 µM

Structure (SMILES): Cc1ccc(NC(=O)CC(CCCO)c2nnc(CCCC(C)C)n2C2CC2)c(C)c1 (racemic) [Example F-214]
- EC50 (human RORγ; read-out: LUC EC50 (μM) hRORg): < 3 µM
- EC50 (mouse RORγ; read-out: LUC EC50 (μM) mRORg): < 3 µM

Structure (SMILES): Cc1c(Cl)cccc1NC(=O)CCc1nnc(CCCC(C)C)n1C1CC1 [Example F-120]
- EC50 (human RORγ; read-out: LUC EC50 (μM) hRORg): < 3 µM
- EC50 (mouse RORγ; read-out: LUC EC50 (μM) mRORg): < 3 µM

Structure (SMILES): Cc1cc(C#N)ccc1NC(=O)CCc1nnc(CCC(C)C)n1C1CC1 [Example F-161]
- EC50 (human RORγ; read-out: LUC EC50 (μM) hRORg): > 3 µM
- EC50 (mouse RORγ; read-out: LUC EC50 (μM) mRORg): > 3 µM

Structure (SMILES): Cc1ccc(NC(=O)C[C@H](C[C@H](O)CO)c2nnc(CCCC(C)C)n2C2CC2)c(C)c1 [Example F-343]
- EC50 (human RORγ; read-out: LUC EC50 (μM) hRORg): < 3 µM
- EC50 (mouse RORγ; read-out: LUC EC50 (μM) mRORg): < 3 µM

Structure (SMILES): Cc1cc(Cl)ccc1NC(=O)C[C@H](CCO)c1nnc([C@H]2C[C@@H](CC(C)C)C2)n1C1CC1 [Example F-525]
- EC50 (human RORγ; read-out: LUC EC50 hRORg): < 3 µM
- EC50 (mouse RORγ; read-out: LUC EC50 mRORg): < 3 µM

Structure (SMILES): COC1C[C@@H](C(=O)Nc2ccc(C)cc2C)[C@H](c2nnc([C@H]3C[C@@H](CC(C)C)C3)n2C2CC2)C1 (single isomer, unassigned) [Example F-557]
- EC50 (human RORγ; read-out: LUC EC50 hRORg): > 3 µM
- EC50 (mouse RORγ; read-out: LUC EC50 mRORg): > 3 µM

Structure (SMILES): CCn1c(CCC(=O)Nc2cccc(Cl)c2C)nnc1CCC(C)(C)C [Example F-53]
- EC50 (human RORγ; read-out: LUC EC50 (μM) hRORg): > 3 µM
- EC50 (mouse RORγ; read-out: LUC EC50 (μM) mRORg): < 3 µM

Structure (SMILES): Cc1ccc(NC(=O)C[C@H](C[C@@H](C)O)c2nnc([C@H]3C[C@@H](CC(C)C)C3)n2C2CC2)c(C)c1 [Example F-560]
- EC50 (human RORγ; read-out: LUC EC50 hRORg): < 3 µM
- EC50 (mouse RORγ; read-out: LUC EC50 mRORg): < 3 µM

Structure (SMILES): Cc1ccc(NC(=O)C[C@H](Cc2noc(=O)[nH]2)c2noc([C@H]3C[C@@H](CC(C)C)C3)c2C2CC2)c(C)c1 [Example F-640]
- EC50 (human RORγ; read-out: LUC EC50 hRORg): < 3 µM
- EC50 (mouse RORγ; read-out: LUC EC50 mRORg): < 3 µM

Structure (SMILES): CNC(=O)C(C)(C)CCCc1nnc(CCC(=O)Nc2cccc(Cl)c2C)n1C1CC1 [Example F-237]
- EC50 (human RORγ; read-out: LUC EC50 (μM) hRORg): > 3 µM
- EC50 (mouse RORγ; read-out: LUC EC50 (μM) mRORg): > 3 µM

Structure (SMILES): CC(=O)N(CCc1nnc(CCC(=O)Nc2cccc(Cl)c2C)n1C1CC1)C(C)C [Example F-233]
- EC50 (human RORγ; read-out: LUC EC50 (μM) hRORg): > 3 µM
- EC50 (mouse RORγ; read-out: LUC EC50 (μM) mRORg): > 3 µM

Structure (SMILES): Cc1cccc(C)c1NC(=O)CCc1nnc(CCC(C)C)n1C1CC1 [Example F-70]
- EC50 (human RORγ; read-out: LUC EC50 (μM) hRORg): > 3 µM
- EC50 (mouse RORγ; read-out: LUC EC50 (μM) mRORg): > 3 µM

Structure (SMILES): Cc1ccc(NCc2nnc(CCC(=O)Nc3cccc(Cl)c3C)n2C2CC2)cc1C [Example F-207]
- EC50 (human RORγ; read-out: LUC EC50 (μM) hRORg): < 3 µM
- EC50 (mouse RORγ; read-out: LUC EC50 (μM) mRORg): < 3 µM

Structure (SMILES): CC(=O)N1C[C@H](C(=O)Nc2ccc(Cl)cc2C)[C@@H](c2nnc([C@H]3C[C@@H](CC(C)(C)F)C3)n2C2CC2)C1 [Example F-611]
- EC50 (human RORγ; read-out: LUC EC50 hRORg): < 3 µM
- EC50 (mouse RORγ; read-out: LUC EC50 mRORg): < 3 µM

Structure (SMILES): Cc1ccc(NC(=O)C[C@@H](c2nnc(CCCC(C)(C)C)n2C2CC2)N2CCCC2=O)c(C)c1 [Example F-403]
- EC50 (human RORγ; read-out: LUC EC50 (μM) hRORg): < 3 µM
- EC50 (mouse RORγ; read-out: LUC EC50 (μM) mRORg): < 3 µM

Structure (SMILES): Cc1ccc(NC(=O)C[C@H](CCC(=O)O)c2noc(-c3cc(C(F)(F)C(C)C)on3)c2C2CC2)c(Cl)c1 [Example E-20]
- EC50 (human RORγ; read-out: LUC EC50 (μM) hRORg): < 3 µM
- EC50 (mouse RORγ; read-out: LUC EC50 (μM) mRORg): < 3 µM

Structure (SMILES): CCn1c(CCC(=O)Nc2cc(C)cc(C)c2)nnc1C1Cc2ccccc2C1 [Example F-16]
- EC50 (human RORγ; read-out: LUC EC50 (μM) hRORg): > 3 µM
- EC50 (mouse RORγ; read-out: LUC EC50 (μM) mRORg): < 3 µM

Structure (SMILES): COC1C[C@H](C(=O)Nc2ccc(C)cc2C)[C@@H](c2nnc([C@H]3C[C@@H](CC(C)C)C3)n2C2CC2)C1 (single isomer, unassigned) [Example F-556]
- EC50 (human RORγ; read-out: LUC EC50 hRORg): < 3 µM
- EC50 (mouse RORγ; read-out: LUC EC50 mRORg): < 3 µM
